From ChEMBL document CHEMBL1130359, “In vivo immunosuppressive activity of some cyclolignans” (Bioorg Med Chem Lett, 1997)
≈ marks a conversion by molar mass, not a printed value.

Experiments:
[1] = Tested in vitro for cytotoxicity against […](LcV) in cells; format: functional
[2] = Non-cytotoxic IMS activity (ratio LcV/MLR) was determined; format: functional
Mus musculus [3] = species: Mus musculus; assay: Tested for immunosuppressive activity in mouse using allogenic MLR method; format: functional, organism-based
Mus musculus [4] = assay: Tested in vivo for immunosuppressive activity in mouse using allogenic skin grafting technique(SG); graft survival relative to cyclophosphamide at a dose of 0.15 mg/kg; format: functional
Mus musculus [5] = assay: Tested in vivo for immunosuppressive activity in mouse using graft vs Host rejection technique(GVHR); weight at a dose of 15 mg/kg; format: functional
Mus musculus [6] = assay: Tested in vivo for immunosuppressive activity in mouse using graft vs Host rejection technique(GVHR); body weight at a dose of 0.15 mg/kg; format: functional
Mus musculus [7] = assay: Tested in vivo for immunosuppressive activity in mouse using allogenic skin grafting technique(SG); weight at a dose of 0.15 mg/kg; format: functional
Mus musculus [8] = assay: Tested in vivo for immunosuppressive activity in mouse using graft vs Host rejection technique(GVHR); body weight at a dose of 15.0 mg/kg; format: functional
Mus musculus [9] = assay: Tested in vivo for immunosuppressive activity in mouse using graft vs Host rejection technique(GVHR);% suppression at a dose of 1.5 mg/kg; format: functional
Mus musculus [10] = assay: Tested in vivo for immunosuppressive activity in mouse using graft vs Host rejection technique(GVHR); body weight at a dose of 1.5 mg/kg; format: functional
Mus musculus [11] = assay: Tested in vivo for immunosuppressive activity in mouse using graft vs Host rejection technique(GVHR); weight change at a dose of 15.0 mg/kg on day 5; format: functional
Mus musculus [12] = assay: Tested in vivo for immunosuppressive activity in mouse using allogenic skin grafting technique(SG); graft survival relative to cyclophosphamide at a dose of 1.5 mg/kg; format: functional
Mus musculus [13] = assay: Tested in vivo for immunosuppressive activity in mouse using graft vs Host rejection technique(GVHR); spleen weight normalized to D8 body weight at a dose of 1.5 mg/kg; format: functional
Mus musculus [14] = assay: Tested in vivo for immunosuppressive activity in mouse using graft vs Host rejection technique(GVHR); spleen index at a dose of 1.5 mg/kg; format: functional
Mus musculus [15] = assay: Tested in vivo for immunosuppressive activity in mouse using allogenic skin grafting technique(SG); weight lost at a dose of 1.5 mg/kg on day 5; format: functional
Mus musculus [16] = assay: Tested in vivo for immunosuppressive activity in mouse using allogenic skin grafting technique(SG); mean graft survival at a dose of 15 mg/kg; format: functional
Mus musculus [17] = assay: Tested in vivo for immunosuppressive activity in mouse using graft vs Host rejection technique(GVHR); % suppression at a dose of 15.0 mg/kg; format: functional
Mus musculus [18] = assay: Tested in vivo for immunosuppressive activity in mouse using graft vs Host rejection technique(GVHR); spleen weight normalized to D8 body weight at a dose of 15.0 mg/kg; format: functional
Mus musculus [19] = assay: Tested in vivo for immunosuppressive activity in mouse using allogenic skin grafting technique(SG); weight lost at a dose of 0.15 mg/kg; format: functional
Mus musculus [20] = assay: Tested in vivo for immunosuppressive activity in mouse using graft vs Host rejection technique(GVHR); spleen index at a dose of 15.0 mg/kg; format: functional
Mus musculus [21] = assay: Tested in vivo for immunosuppressive activity in mouse using graft vs Host rejection technique(GVHR); spleen weight normalized to D8 body weight at a dose of 0.15 mg/kg; format: functional
Mus musculus [22] = assay: Tested in vivo for immunosuppressive activity in mouse using allogenic skin grafting technique(SG); mean graft survival at a dose of 0.15 mg/kg; format: functional
Mus musculus [23] = assay: Tested in vivo for immunosuppressive activity in mouse using allogenic skin grafting technique(SG); weight at a dose of 1.5 mg/kg; format: functional
Mus musculus [24] = assay: Tested in vivo for immunosuppressive activity in mouse using graft vs Host rejection technique(GVHR); spleen index at a dose of 0.15 mg/kg; format: functional
Mus musculus [25] = assay: Tested in vivo for immunosuppressive activity in mouse using graft vs Host rejection technique(GVHR); weight change at a dose of 1.5 mg/kg on day 5; format: functional
Mus musculus [26] = assay: Tested in vivo for immunosuppressive activity in mouse using allogenic skin grafting technique(SG); mean graft survival at a dose of 1.5 mg/kg; format: functional
Mus musculus [27] = assay: Tested in vivo for immunosuppressive activity in mouse using graft vs Host rejection technique(GVHR); weight change at a dose of 0.15 mg/kg on day 5; format: functional
Mus musculus [28] = assay: Tested in vivo for immunosuppressive activity in mouse using graft vs. Host rejection technique(GVHR); weight change at a dose of 0.15 mg/kg; format: functional
Mus musculus [29] = assay: Tested in vivo for immunosuppressive activity in mouse using allogenic skin grafting technique(SG); graft survival relative to cyclophosphamide at a dose of 15.0 mg/kg; format: functional
Mus musculus [30] = assay: Tested in vivo for immunosuppressive activity in mouse using graft vs. Host rejection technique(GVHR); body weight at a dose of 0.15 mg/kg; format: functional
Mus musculus [31] = assay: Tested in vivo for immunosuppressive activity in mouse using graft vs. Host rejection technique(GVHR); spleen index at a dose of 0.15 mg/kg; format: functional
Mus musculus [32] = assay: Tested in vivo for immunosuppressive activity in mouse using graft vs. Host rejection technique(GVHR); % suppression at a dose of 1.5 mg/kg; format: functional
Mus musculus [33] = assay: Tested in vivo for immunosuppressive activity in mouse using graft vs. Host rejection technique(GVHR); weight change at a dose of 1.5 mg/kg; format: functional
Mus musculus [34] = assay: Tested in vivo for immunosuppressive activity in mouse using allogenic skin grafting technique(SG); mean graft survival at a dose of 15.0 mg/kg; format: functional
Mus musculus [35] = assay: Tested in vivo for immunosuppressive activity in mouse using graft vs. Host rejection technique(GVHR); % suppression at a dose of 15 mg/kg; format: functional
Mus musculus [36] = assay: Tested in vivo for immunosuppressive activity in mouse using graft vs. Host rejection technique(GVHR); body weight at a dose of 15.0 mg/kg; format: functional
Mus musculus [37] = assay: Tested in vivo for immunosuppressive activity in mouse using graft vs. Host rejection technique(GVHR); spleen weight normalized to D8 body weight at a dose of 0.15 mg/kg; format: functional
Mus musculus [38] = assay: Tested in vivo for immunosuppressive activity in mouse using graft vs. Host rejection technique(GVHR); weight change at a dose of 15.0 mg/kg; format: functional
Mus musculus [39] = assay: Tested in vivo for immunosuppressive activity in mouse using graft vs. Host rejection technique(GVHR); % suppression at a dose of 0.15 mg/kg; format: functional
Mus musculus [40] = assay: Tested in vivo for immunosuppressive activity in mouse using graft vs. Host rejection technique(GVHR); spleen weight normalized to D8 body weight at a dose of 15.0 mg/kg; format: functional
Mus musculus [41] = assay: Tested in vivo for immunosuppressive activity in mouse using graft vs. Host rejection technique(GVHR); spleen weight normalized to D8 body weight at a dose of 1.5 mg/kg; format: functional
Mus musculus [42] = assay: Tested in vivo for immunosuppressive activity in mouse using graft vs. Host rejection technique(GVHR); body weight at a dose of 1.5 mg/kg; format: functional
Mus musculus [43] = assay: Tested in vivo for immunosuppressive activity in mouse using allogenic skin grafting technique(SG); weight lost at a dose of 1.5 mg/kg; format: functional
Mus musculus [44] = assay: Tested in vivo for immunosuppressive activity in mouse using allogenic skin grafting technique(SG); weight at a dose of 15 mg/kg; format: functional
Mus musculus [45] = assay: Tested in vivo for immunosuppressive activity in mouse using graft vs. Host rejection technique(GVHR); % suppression at a dose of 15.0 mg/kg; format: functional
Mus musculus [46] = assay: Tested in vivo for immunosuppressive activity in mouse using graft vs. Host rejection technique(GVHR); spleen index at a dose of 15.0 mg/kg; format: functional
Mus musculus [47] = assay: Tested in vivo for immunosuppressive activity in mouse using graft vs. Host rejection technique(GVHR); spleen index at a dose of 1.5 mg/kg; format: functional
Mus musculus [48] = assay: Tested in vivo for immunosuppressive activity in mouse using allogenic skin grafting technique(SG); mean graft survival at a dose of 25.0 mg/kg; format: functional
Mus musculus [49] = assay: Tested in vivo for immunosuppressive activity in mouse using graft vs. Host rejection technique(GVHR); weight change at a dose of 25.0 mg/kg; format: functional
Mus musculus [50] = assay: Tested in vivo for immunosuppressive activity in mouse using allogenic skin grafting technique(SG); graft survival relative to cyclophosphamide at a dose of 25.0 mg/kg; format: functional

COc1cc([C@H]2C3=C(COC3=O)Cc3cc4c(cc32)OCO4)cc(OC)c1OC
Cytotoxicity [1]: >28.5 µg/mL
Ratio [2]: >3333
IC50 (Mus musculus [3]): < 8.55 ng/mL

COc1cc([C@@H]2c3cc(OC(C)=O)c(OC(C)=O)cc3[C@@H](OC(C)=O)[C@H]3COC(=O)[C@H]23)cc(OC)c1OC
Cytotoxicity [1]: >28.5 µg/mL
Ratio [2]: >67
IC50 (Mus musculus [3]): 427 ng/mL (≈ 808 nM)

COc1cc([C@H]2C3=C(COC3=O)Cc3cc(OC(C)=O)c(OC(C)=O)cc32)cc(OC)c1OC
Cytotoxicity [1]: >28.5 µg/mL
Ratio [2]: >78
IC50 (Mus musculus [3]): 366 ng/mL (≈ 781 nM)

COc1cc([C@@H]2c3cc4c(cc3C3=NOC[C@H]3[C@@H]2C(=O)O)OCO4)cc(OC)c1OC
graft survival (Mus musculus [4]): 1.14 days
Cytotoxicity [1]: >30 µg/mL
Body weight (Mus musculus [5]): 17.8 g
Body weight (Mus musculus [6]): 15.8 g
Body weight (Mus musculus [7]): 19 g
Body weight (Mus musculus [8]): 16.5 g
Activity (Mus musculus [9]): 48%
Body weight (Mus musculus [10]): 16 g
Weight change (Mus musculus [11]): 1.8%
graft survival (Mus musculus [12]): 0.69 days
Ratio [2]: >3333
Spleen weight (Mus musculus [13]): 4.35 g
SI (Mus musculus [14]): 0.87
Body weight (Mus musculus [15]): 1.7 g
Mean graft survival (Mus musculus [16]): 0.9 days
Activity (Mus musculus [17]): 148%
Spleen weight (Mus musculus [18]): 6.34 g
Body weight (Mus musculus [19]): 0.5 g
SI (Mus musculus [20]): 1.27
Spleen weight (Mus musculus [21]): 5.7 g
Mean graft survival (Mus musculus [22]): 11.2 days
Body weight (Mus musculus [23]): 18.7 g
IC50 (Mus musculus [3]): < 9 ng/mL
SI (Mus musculus [24]): 1.14
Weight change (Mus musculus [25]): 0%
Mean graft survival (Mus musculus [26]): 6.8 days
Weight change (Mus musculus [27]): 3.1%

COc1cc([C@@H]2c3cc4c(cc3[C@@H](O)[C@H]3COC(=O)[C@H]23)OCO4)cc(OC)c1OC [EPIPODOPHYLLOTOXIN]
Cytotoxicity [1]: >65 µg/mL
Ratio [2]: >284
IC50 (Mus musculus [3]): 229 ng/mL (≈ 553 nM)

COc1cc([C@@H]2c3cc(O)c(O)cc3[C@@H](O)[C@H]3COC(=O)[C@H]23)cc(OC)c1OC
graft survival (Mus musculus [4]): 1.12 days
Weight change (Mus musculus [28]): 0%
Cytotoxicity [1]: >35 µg/mL
graft survival (Mus musculus [29]): 0.99 days
Body weight (Mus musculus [30]): 17 g
SI (Mus musculus [31]): 0.81
Activity (Mus musculus [32]): 144%
Weight change (Mus musculus [33]): 1.9%
Mean graft survival (Mus musculus [34]): 9.7 days
Body weight (Mus musculus [35]): 18.2 g
Body weight (Mus musculus [7]): 18.3 g
Body weight (Mus musculus [36]): 16.3 g
graft survival (Mus musculus [12]): 1.12 days
Ratio [2]: >23333333
Spleen weight (Mus musculus [37]): 4.05 g
Weight change (Mus musculus [38]): -3%
Activity (Mus musculus [39]): 170%
Spleen weight (Mus musculus [40]): 5.02 g
Spleen weight (Mus musculus [41]): 4.4 g
Body weight (Mus musculus [19]): 0.6 g
Body weight (Mus musculus [42]): 15.8 g
Body weight (Mus musculus [43]): 1 g
Body weight (Mus musculus [44]): 0.2 g
Mean graft survival (Mus musculus [22]): 11 days
Body weight (Mus musculus [23]): 18.5 g
IC50 (Mus musculus [3]): 0.015 ng/mL (≈ 0.0373 nM)
Activity (Mus musculus [45]): 100%
Mean graft survival (Mus musculus [26]): 11 days
SI (Mus musculus [46]): 1
SI (Mus musculus [47]): 0.88

COc1cc([C@@H]2c3cc(O)c(O)cc3C[C@H]3COC(=O)[C@@H]32)cc(OC)c1OC
Cytotoxicity [1]: >25 µg/mL
Ratio [2]: >43
IC50 (Mus musculus [3]): 585 ng/mL (≈ 1510 nM)

C/C=C/C[C@@H](C)[C@@H](O)[C@H]1C(=O)N[C@@H](CC)C(=O)N(C)CC(=O)N(C)[C@@H](CC(C)C)C(=O)N[C@@H](C(C)C)C(=O)N(C)[C@@H](CC(C)C)C(=O)N[C@@H](C)C(=O)N[C@H](C)C(=O)N(C)[C@@H](CC(C)C)C(=O)N(C)[C@@H](CC(C)C)C(=O)N(C)[C@@H](C(C)C)C(=O)N1C [CYCLOSPORINE]
Mean graft survival (Mus musculus [48]): 9.8 days
Weight change (Mus musculus [49]): 2.7%
graft survival (Mus musculus [50]): 1 days

COc1cc([C@@H]2c3cc4c(cc3[C@H](O)[C@H]3COC(=O)[C@H]23)OCO4)cc(OC)c1OC [PODOFILOX]
Cytotoxicity [1]: 280 µg/mL
Ratio [2]: >2187
IC50 (Mus musculus [3]): < 128 ng/mL

COc1cc([C@@H]2c3cc(OC(C)=O)c(OC(C)=O)cc3[C@H](OC(C)=O)[C@H]3COC(=O)[C@H]23)cc(OC)c1OC
Cytotoxicity [1]: >26 µg/mL
Ratio [2]: >428
IC50 (Mus musculus [3]): 60.7 ng/mL (≈ 115 nM)
